# Measured values: patent publication US5681925A, “Trifunctional antithrombin and antiplatelet peptides” (priority 1995, dated 1997)
# Like-named read-outs stand apart in the source and are kept apart here. Bridge positions count the residues as written; N and C are the ends. Square brackets hold non-standard residues; d marks the D form. Ends that are not written are not given here. Peptide text beside a SMILES is read from it. Cha = N[C@@H](CC1CCCCC1)C(=O)O; Nle = CCCC[C@H](N)C(=O)O
# Experiments:
# human platelets [1] = tested on: human platelets
# Method: (§1) Human platelet-rich plasma (PRP) is prepared by centrifugation at 200 g-forces for 10 min. at room temperature. Platelet poor plasma (PPP) is prepared by centrifugation at 2,000 g-forces for 10 min. PRP is exposed only to plastic laboratory ware. All experiments are completed within 3 hours of blood collection. Platelet aggregation is measured photometrically using a dual channel aggregometer (Chrono-log Corp., Haverstown, Pa. 19083). One hundred percent light transmission is defined with autologus PPP. Percent maximal change in light transmission is determined from PRP following addition of ADP (1 μM) or thrombin. Thrombin (0.2-2.0 Units/ml)-induced platelet aggregation is concentration dependent and the half-maximal concentration is used for inhibition studies. Peptide 2 (SEQ ID NO: 2) is incubated with PRP (0.45 ml) for 30 seconds prior to the addition of ADP or thrombin. Aggregation is measured in a total volume of 0.5 ml. Inhibitory responses are expressed as percent inhibition when compared to a control value. The concentration resulting in 50% inhibition of aggregation. (IC50) is calculated by simple linear regression.
# (§2) Human platelet-rich plasma (PRP) is prepared by centrifugation at 200 g-forces for 10 min. room temperature. Platelet poor plasma (PPP) is prepared by centrifugation at 2,000 g-forces for 10 min. PRP is exposed only to plastic laboratory ware. All experiments are completed within 3 hours of blood collection. Platelet aggregation is measured photometrically using a Chrono-log dual channel aggregometer (Chrono-log Corp., Haverstown, Pa. 19083). One hundred percent light transmission is defined with autologus PPP. Percent maximal change in light transmission is determined from PRP following addition of ADP (1 μM) or thrombin. Thrombin (0.2-2.0 Units/ml)-induced platelet aggregation is concentration dependent and the half-maximal concentration is used for inhibition studies. Peptide 1 (SEQ ID NO: 1) is incubated with PRP (0.45 ml) for 30 seconds prior to the addition of ADP or thrombin. Aggregation is measured in a total volume of 0.5 ml. Inhibitory responses are expressed as percent inhibition when compared to a control value. The concentration resulting in 50% inhibition of aggregation (IC50) is calculated by simple linear regression.
# human platelets [2] = tested on: human platelets; remark: listed apart in the source
# Method: as §1, §2
# [3] = tested on: rat whole blood platelets; details: read-out: IC50 whole blood platelet aggregation, ADP (0.5 μM) and thrombin (0.025 U/ml)
# Method: (§3) Platelet aggregation in blood is performed in saline diluted (1:2) citrated blood using a whole blood aggregomenter (Chrono-log, model 540-VS). Aliquots of diluted blood are placed in plastic cuvettes and incubated at 37° C. for 15 min. Addition of ADP (2 μM) or thrombin (0.4 U/ml) is used to induce aggregation and the change in electrical impedance is registered on a strip chart recorder. Aggregation is measured in a total blood volume of 1.0 ml. Inhibitory responses are expressed as percent inhibition when compared to a control value. The concentration resulting in 50% inhibition of aggregation (IC50) is calculated by simple linear regression.
# [4] = dog, in vivo
# Method: (§4) Dogs are anesthetized with sodium pentobarbital (30 mg/kg, i.v.). The femoral artery and both femoral veins are isolated and cannulated for the recording of blood pressure (Gould P23ID, Gould Inc., Medical Products Division, Oxnard, Calif. 93030), blood sampling, and drug administration. Limb leads are placed subcutaneously for monitoring of lead II ECG. Blood pressure and ECG measurements are recorded (Gould 440 recorder, Gould Inc., Instrument Systems Division, Cleveland, Ohio 44114).
# Template bleeding times are performed on the median surface of the left leg after the hair has been removed (Nair, Carter-Wallace, Inc., New York, N.Y. 10105) using a Surgicutt® bleeding time device (International Technidyne Corp., Edison, N.J. 08820). Template bleeding times are determined 60 and 30 min before administration of the drug, 15, 30, 60, 120, 180 and 240 min after drug administration.
# Whole blood cell counts and analysis of the hemoglobin content are determined on a 140 μL blood sample anticoagulated with EDTA processed with a hematology analyzer (Technicon El, Miles Technicon, Tarrytown, N.Y. 10591). Samples were taken at 60 and 30 min before administration of the drug, 15, 30, 60, 120, 180 and 240 min after drug administration.
# dog platelets = experiment: Intravenous infusion in anesthetized dogs: platelet aggregation; details: after 1 nmol/kg/min infusion is stopped
# Method: as §4, §3
# [5] = tested on: human whole blood platelets; details: read-out: IC50 whole blood platelet aggregation, ADP (0.5 μM) and thrombin (0.025 U/ml)
# Method: as §3
# thrombin = experiment: Intravenous infusion in anesthetized dogs: thrombin time and aPTT
# Method: as §4
# Activated partial thromboplastin time (aPTT) determinations are carried out using the reagents and methods of Dade Diagnostics, Inc. (Aguada, Puerto Rico 0602). Thrombin clotting times are determined by incubating 0.1 ml of rat plasma at 37° C. with 0.1 ml of 0.1M Tris buffer, pH 7.5 for 30 seconds. Coagulation is started with 0.1 ml of bovine thrombin (Sigma Diagnostics, St. Louis, Mo. 63178) solution (12 NIH units/ml). All clotting times are measured semiautomatically using a MLA-Electra 750 automatic coagualation timer, MLA, Inc. (Pleasantville, N.Y. 10570). The concentration required for doubling the clotting time (ID2) is calculated using simple linear regression. […] Estimation of t1/2 is made by linear regression of the response data over time.
# human plasma = experiment: Activated partial thromboplastin time (aPTT) in human plasma; assay type: biochemical
# Method: (§5) Activated partial thromboplastin time (aPTT) determinations are carried out using the reagents and methods of Dade Diagnostics, Inc. (Aguada, Puerto Rico 00602). Thrombin clotting times are determined by incubating 0.1 ml of rat plasma at 37° C. with 0.1 ml of 0.1M Tris buffer, pH 7.5 for 30 seconds. Coagulation is started with 0.1 ml of bovine thrombin (Sigma Diagnostics, St. Louis, Mo. 63178) solution (12 NIH units/ml). All clotting times are measured semiautomatically using a MLA-Electra 750 automatic coagualation timer, MLA, Inc. (Pleasantville, N.Y. 10570). The concentration required for doubling the clotting time (ID2) is calculated using simple linear regression.
# (§6) Activated partial thromboplastin time (aPTT) determinations are carried out using the reagents and methods of Dade Diagnostics, Inc. (Aguada, Puerto Rico 0602). Thrombin clotting times are determined by incubating 0.1 ml of rat plasma at 37° C. with 0.1 ml of 0.1M Tris buffer, pH 7.5 for 30 seconds. Coagulation is started with 0.1 ml of bovine thrombin (Sigma Diagnostics, St. Louis, Mo. 63178) solution (12 NIH units/ml). All clotting times are measured semiautomatically using a MLA-Electra 750 automatic coagualation timer, MLA, Inc. (Pleasantville, N.Y. 10570). The concentration required for doubling the clotting time (ID2) is calculated using simple linear regression.
# bovine thrombin = molecular target: T1, bovine thrombin (Bos taurus, UniProt P00735); experiment: Thrombin clotting time in human plasma; assay type: biochemical
# T1 construct: purchased Sigma Diagnostics, St. Louis, Mo
# Method: as §5, §6
molecule,measurement,setting,value
"CN[C@H](Cc1ccccc1)C(=O)N1CCC[C@H]1C(=O)N[C@@H](CCCNC(=N)N)C(=O)O [Peptide 2d, (CH3)fPR, reference compound]",IC50,human platelets [1]; 3 h,> 1000 µM
same,IC50,human platelets [2]; 3 h,0.2 µM
"CC[C@H](C)[C@H](NC(=O)[C@@H]1CCCN1C(=O)[C@H](CCC(=O)O)NC(=O)[C@H](Cc1ccc(O)cc1)NC(=O)[C@H](CC(=O)O)NC(=O)CNC(=O)[C@H]1CSSC[C@@H](NC(=O)CNC(=O)[C@@H]2CCCN2C(=O)[C@H](CCCNC(=N)N)NC(=O)[C@@H]2CCCN2C(=O)[C@H](N)Cc2ccccc2)C(=O)NCC(=O)N[C@@H](CCCNC(=N)N)C(=O)NCC(=O)N[C@@H](CC(=O)O)C(=O)N[C@@H](Cc2ccccc2)C(=O)N2CCC[C@H]2C(=O)N1)C(=O)N1CCC[C@H]1C(=O)N[C@@H](CCC(=O)O)C(=O)N[C@@H](CCC(=O)O)C(=O)N[C@@H](C)C(=O)N[C@@H](CC1CCCCC1)C(=O)N[C@H](CCC(=O)O)C(=O)O [Peptide 2, fPRPGcGRGDFPcGDYEPIPEEA(Cha)e] (H-[dF]PRPG[dC]GRGDFP[dC]GDYEPIPEEA[Cha][dE]-OH; disulfide 6-13)",IC50,human platelets [1]; 3 h,~19 µM
same,IC50,human platelets [2]; 3 h,0.06 ± 0.026 µM
"CCCC[C@@H]1NC(=O)[C@H](CC(=O)O)NC(=O)CNC(=O)[C@H](CCCNC(=N)N)NC(=O)CNC(=O)[C@H](NC(=O)CNC(=O)[C@@H]2CCCN2C(=O)[C@H](CCCNC(=N)N)NC(=O)[C@@H]2CCCN2C(=O)[C@H](N)Cc2ccccc2)CSSC[C@H](C(=O)NCC(=O)N[C@@H](CC(=O)O)C(=O)N[C@@H](Cc2ccc(O)cc2)C(=O)N[C@@H](CCC(=O)O)C(=O)N2CCC[C@H]2C(=O)N[C@H](C(=O)N2CCC[C@H]2C(=O)N[C@@H](CCC(=O)O)C(=O)N[C@@H](CCC(=O)O)C(=O)N[C@@H](C)C(=O)N[C@@H](CC2CCCCC2)C(=O)N[C@H](CCC(=O)O)C(=O)O)[C@@H](C)CC)NC(=O)[C@@H]2CCCN2C1=O [Peptide 1, fPRPGcGRGD(Nle)PcGDYEPIPEEA(Cha)e] (H-[dF]PRPG[dC]GRGD[Nle]P[dC]GDYEPIPEEA[Cha][dE]-OH; disulfide 6-13)",IC50,[3],0.0425 µM
same,time after infusion ends at which blood pressure and heart rate return to baseline control values,[4],2 h
same,"pharmacodynamic t1/2, restoration of platelet activity",dog platelets,12.8 ± 1.1 min
same,IC50,[5],0.0029 µM
same,IC50,human platelets [1]; 3 h,11.4 µM
same,"pharmacodynamic t1/2, restoration of thrombin activity",thrombin; after 1 hr infusion of 1 nmol/kg/min,17 ± 0.1 min
same,"pharmacodynamic t1/2, restoration of thrombin activity",thrombin; after 1 hr infusion of 5 nmol/kg/min,26 ± 3.2 min
"fPRPGCGRGD(Nle)PCGDYEPIPEEAYD [Peptide 4, reference compound]",anticoagulant activity (in words),human plasma; aPTT and thrombin time,less anticoagulant activity than Peptide 2
same,ID2 aPTT,human plasma; concentration doubling clotting time,115 ± 24 nM
same,ID2 Thrombin Time,"bovine thrombin; human plasma, concentration doubling clotting time",14 ± 3 nM
same,inhibition of ADP-induced platelet aggregation (in words),human platelets [1]; human platelets,approximately equivalent to Peptide 1
same,IC50,"human platelets [1]; read-out: IC50 inhibition of platelet aggregation, ADP, human PRP, ADP-induced",35.9 ± 0.5 µM
same,"fold less active than Peptide 1, thrombin-induced platelet aggregation",human platelets [2]; human platelets,"approximately 1,000 fold"
same,IC50,"human platelets [2]; read-out: IC50 Thrombin, human PRP, thrombin-induced",0.408 ± 0.18 µM
fPRPGcvRGD(Nle)PcGDYEPIPEEA(Cha)e ([dF]PRPG[dC][dV]RGD[Nle]P[dC]GDYEPIPEEA[Cha][dE]; disulfide 6-13 (inferred)) [Peptide 11],Relative activity vs Peptide 1: Coagulation aPTT,"human plasma; ratio to Peptide 1 (ID2 27.9 nM), 1 = as active as Peptide 1",0.37
same,Relative activity vs Peptide 1: Coagulation Thrombin Time,"bovine thrombin; ratio to Peptide 1 (ID2 15 nM), 1 = as active as Peptide 1",0.86
same,Relative activity vs Peptide 1: Aggregation Thrombin,"human platelets [2]; ratio to Peptide 1 (IC50 5.8 nM), 1 = as active as Peptide 1",0.13
